PubChem BioAssay (NCI)
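In this assay, cells in 96-well plates receive the compound at five concentrations for 48 hours. Endpoints are linearly interpolated between the surrounding concentrations. TGI marks complete inhibition of growth.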

Legend:
Test in all cases: NCI tumour cell line growth inhibition, 48 h
SN12C renal = tested on: SN12C renal
NCI-H522 lung = tested on: NCI-H522 lung
RXF 393 renal = tested on: RXF 393 renal
DU-145 prostate = tested on: DU-145 prostate
SW-620 colon = tested on: SW-620 colon
RXF-631 renal = tested on: RXF-631 renal
M14 melanoma = tested on: M14 melanoma
SNB-19 CNS = tested on: SNB-19 CNS
COLO 205 colon = tested on: COLO 205 colon
786-0 renal = tested on: 786-0 renal
A549 NSCLC = tested on: A549 NSCLC
HT29 colon = tested on: HT29 colon
PC-3 prostate = tested on: PC-3 prostate
OVCAR-4 ovarian = tested on: OVCAR-4 ovarian
NCI-H226 lung = tested on: NCI-H226 lung
SR leukemia = tested on: SR leukemia
UO-31 renal = tested on: UO-31 renal
HS 578T breast = tested on: HS 578T breast
KM20L2 colon = tested on: KM20L2 colon
KM12 colon = tested on: KM12 colon
MDA-N = tested on: MDA-N
OVCAR-3 ovarian = tested on: OVCAR-3 ovarian
UACC-62 melanoma = tested on: UACC-62 melanoma
U251 CNS = tested on: U251 CNS
HOP-92 NSCLC = tested on: HOP-92 NSCLC
UACC-257 melanoma = tested on: UACC-257 melanoma
EKVX NSCLC = tested on: EKVX NSCLC
OVCAR-8 ovarian = tested on: OVCAR-8 ovarian
SK-MEL-2 melanoma = tested on: SK-MEL-2 melanoma
T-47D breast = tested on: T-47D breast
HOP-62 NSCLC = tested on: HOP-62 NSCLC
HCT-15 colon = tested on: HCT-15 colon
NCI-H460 lung = tested on: NCI-H460 lung
SF-539 CNS = tested on: SF-539 CNS
DLD-1 colon = tested on: DLD-1 colon
SF-295 CNS = tested on: SF-295 CNS
K-562 leukemia = tested on: K-562 leukemia
CAKI-1 renal = tested on: CAKI-1 renal
HCC-2998 colon = tested on: HCC-2998 colon
ACHN renal = tested on: ACHN renal
HL-60(TB) leukemia = tested on: HL-60(TB) leukemia
SK-MEL-5 melanoma = tested on: SK-MEL-5 melanoma
SK-OV-3 ovarian = tested on: SK-OV-3 ovarian
NCI/ADR-RES ovarian = tested on: NCI/ADR-RES ovarian
MCF7 breast = tested on: MCF7 breast
IGROV1 ovarian = tested on: IGROV1 ovarian
MALME-3M melanoma = tested on: MALME-3M melanoma
SNB-75 CNS = tested on: SNB-75 CNS
MDA-MB-435 = tested on: MDA-MB-435
TK-10 renal = tested on: TK-10 renal
HOP-18 NSCLC = tested on: HOP-18 NSCLC
HCT-116 colon = tested on: HCT-116 colon
SF-268 CNS = tested on: SF-268 CNS
BT-549 breast = tested on: BT-549 breast
OVCAR-5 ovarian = tested on: OVCAR-5 ovarian
NCI-H23 lung = tested on: NCI-H23 lung
MDA-MB-231 breast = tested on: MDA-MB-231 breast
RPMI-8226 leukemia = tested on: RPMI-8226 leukemia
CCRF-CEM leukemia = tested on: CCRF-CEM leukemia

COc1ccc2c(NCCCCCCNc3c4ccccc4nc4cc(OC)ccc34)c3ccccc3nc2c1 showed a TGI (SN12C renal) of 1.49 µM, a TGI (NCI-H522 lung) of 0.34 µM and a TGI (RXF 393 renal) of 0.483 µM. For the same molecule, the TGI (DU-145 prostate) was 1.47 µM, the TGI (SW-620 colon) was 1.08 µM and the TGI (RXF-631 renal) was 3.97 µM. The TGI (M14 melanoma) was 1.23 µM, the TGI (SNB-19 CNS) was 3.75 µM and the TGI (COLO 205 colon) was 0.189 µM. For the same molecule, the TGI (786-0 renal) was 1.3 µM, the TGI (A549 NSCLC) was 11.9 µM and the TGI (HT29 colon) was 0.486 µM. For the same molecule, the TGI (PC-3 prostate) was 0.543 µM, the TGI (OVCAR-4 ovarian) was 0.461 µM and the TGI (NCI-H226 lung) was 3.49 µM. It also gave a TGI (SR leukemia) of 1.54 µM, a TGI (UO-31 renal) of 37.5 µM and a TGI (HS 578T breast) of 0.937 µM. The TGI (KM20L2 colon) was 1.17 µM, the TGI (KM12 colon) was 2.03 µM and the TGI (MDA-N) was 1.2 µM. For the same molecule, the TGI (OVCAR-3 ovarian) was 1.76 µM, the TGI (UACC-62 melanoma) was 1.59 µM and the TGI (U251 CNS) was 1.47 µM. For the same molecule, the TGI (HOP-92 NSCLC) was 2.07 µM, the TGI (UACC-257 melanoma) was 4.12 µM and the TGI (EKVX NSCLC) was 2.53 µM. For the same molecule, the TGI (OVCAR-8 ovarian) was 11 µM, the TGI (SK-MEL-2 melanoma) was 1.67 µM and the TGI (T-47D breast) was 6.16 µM. The TGI (HOP-62 NSCLC) was 0.946 µM, the TGI (HCT-15 colon) was 9.36 µM and the TGI (NCI-H460 lung) was 1.1 µM. The TGI (SF-539 CNS) was 1.03 µM, the TGI (DLD-1 colon) was 2.62 µM and the TGI (SF-295 CNS) was 2.04 µM. The TGI (K-562 leukemia) was 0.304 µM, the TGI (CAKI-1 renal) was 3.39 µM and the TGI (HCC-2998 colon) was 0.451 µM. It also gave a TGI (ACHN renal) of 1.01 µM, a TGI (HL-60(TB) leukemia) of 0.379 µM and a TGI (SK-MEL-5 melanoma) of 5.76 µM. It also gave a TGI (SK-OV-3 ovarian) of 2.04 µM, a TGI (NCI/ADR-RES ovarian) of 18.8 µM and a TGI (MCF7 breast) of 3.35 µM. The TGI (IGROV1 ovarian) was 0.339 µM, the TGI (MALME-3M melanoma) was 2.55 µM and the TGI (SNB-75 CNS) was 1.74 µM. The TGI (MDA-MB-435) was 1.26 µM, the TGI (TK-10 renal) was 4.56 µM and the TGI (HOP-18 NSCLC) was 10.9 µM. For the same molecule, the TGI (HCT-116 colon) was 0.333 µM, the TGI (SF-268 CNS) was 12.5 µM and the TGI (BT-549 breast) was 3.18 µM. It also gave a TGI (OVCAR-5 ovarian) of 1.89 µM, a TGI (NCI-H23 lung) of 0.819 µM and a TGI (MDA-MB-231 breast) of 0.385 µM. The TGI (RPMI-8226 leukemia) was 0.717 µM and the TGI (CCRF-CEM leukemia) was 0.549 µM.
